US20090088461A1, “Methods of Treating or Preventing Cardiac Disease Associated With a High Fat Diet” (Synvista Therapeutics, Inc., priority 2007, published 2009)
pIC50: −log10 of the molar value. “And” between values parts separate entries of the source, which are not always exact repeats. Equal values may be shown once.

Key:
[1] = target: T1, AGE-BSA previously crosslinked to the collagen (Bos taurus, UniProt P02769); assay: Cross-Link Breaking Assay (sandwich enzyme immunoassay); assay type: biochemical; details: for Breaking Anti-AGE: anti-AGE antibody; for Breaking Anti-BSA: anti-BSA antibody
T1 construct: Bovine Serum Albumin (Type V), (BSA) Calbiochem; purchased Calbiochem (BSA Type V); Collaborative Biomedical Products (Biocoat collagen plates)
Procedure: The present invention also involves a novel sandwich enzyme immunoassay used to ascertain the ability of test compounds to “break” or reverse already formed advanced glycosylation endproducts by detecting the breaking of AGE (Advanced glycosylation endproduct) moieties from AGE-crosslinked protein. This assay comprises:
a) incubation of AGE-modified bovine serum albumin (AGE BSA) on collagen-coated wells of microtiter plates for a period of 2-6 hours' at a temperature of 37° C.
b) washing of the wells with PBS-Tween;
c) application of the test compounds to the washed wells of step b;
d) incubation of the test compounds applied to the washed wells for an additional 12-24 hours at a temperature of about 37° C.; and
e) detection of the AGE-breaking using an antibody raised against AGE-ribonuclease or cross-link breaking with an antibody against BSA.
In order to ascertain the ability of the compounds of the instant invention to “break” or reverse already formed advanced glycosylation endproducts, a novel sandwich enzyme immunoassay was developed which detects breaking of AGE (Advanced glycosylation endproduct) moieties from AGE-crosslinked protein. The assay utilizes collagen-coated 96 well microtiter plates that are obtained commercially. […] Following an incubation period of 16 hours (37° C.) cross-link-breaking is detected using an antibody raised against AGE-ribonuclease or with an antibody against BSA. […] Details of the assay are as follows:
1. AGE-BSA stock solutions were prepared as follows. Sodium phosphate buffer (0.4 M) was prepared by dissolving 6 grams of monobasic sodium phosphate in 100 ml of distilled water, 7 grams of dibasic sodium phosphate (0.4 M) in 100 ml of distilled water and adjusting the pH of the dibasic solution to 7.4 with the monobasic solution. Sodium azide (0.02 grams) was added per 100 ml volume to inhibit bacterial growth. The BSA solution was prepared as follows: 400 mg of Type V BSA (bovine serum albumin) was added for each ml of sodium phosphate buffer (above). A 400 mM glucose solution was prepared by dissolving 7.2 grams of dextrose in 100 ml of sodium phosphate buffer (above). The BSA and glucose solutions were mixed 1:1 and incubated at 37° C. for 12 weeks. The pH of the incubation mixture was monitored weekly and adjusted to pH 7.4 if necessary. After 12 weeks, the AGE-BSA solution was dialyzed against PBS for 48 hours with four buffer changes, each at a 1:500 ratio of solution to dialysis buffer. Protein concentration was determined by the micro-Lowry method. The AGE-BSA stock solution was aliquoted and stored at −20° C.
2. Working solutions for crosslinking and breaking studies were prepared as follows. Test compounds were dissolved in PBS and the pH was adjusted to pH 7.4 if necessary. AGE-BSA stock solution was diluted in PBS to measure maximum crosslinking and in the inhibitor solution for testing inhibitory activity of compounds. The concentration of AGE-BSA necessary to achieve the optimum sensitivity was determined by initial titration of each lot of AGE-BSA.
3. Wash buffer (“PBS-Tween”) was, prepared as follows. PBS was prepared by dissolving the following salts in one liter of distilled water: NaCl, 8 grams; KCl, 0.2 gram, KH2PO4. […] Tween-20 was added to a final concentration of 0.05% (vol/vol).
4. Substrates for detection of secondary antibody binding were prepared by diluting the HRP substrate buffer 1:10 in distilled water and mixing with ABTS chromogen 1:50 just prior to use.
1. Biocoat plates were blocked with 300 μl of “Superbloc”. Plates were blocked for one hour at room temperature and were washed with PBS-Tween three times with the Dynatech platewasher before addition of test reagents.
2. Each experiment was set up in the following manner. The first three wells of the Biocoat plate were used for the reagent blank. Fifty microliters of solutions AGE-BSA were added to test wells in triplicate and only PBS in blank wells.

[2] = target: cross-linking of glycated bovine serum albumin (AGE-BSA) to the rat tail tendon collagen-coated 96-well plate (Bos taurus, UniProt P02769); assay: Cross-Linking Inhibition Assay; details: for inhibition at 10000 µM: read-out: Relative Cross-link Inhibition (at 10 mM)
Sequence of cross-linking of glycated bovine serum albumin (AGE-BSA) to the rat tail tendon collagen-coated 96-well plate (P02769 25-607): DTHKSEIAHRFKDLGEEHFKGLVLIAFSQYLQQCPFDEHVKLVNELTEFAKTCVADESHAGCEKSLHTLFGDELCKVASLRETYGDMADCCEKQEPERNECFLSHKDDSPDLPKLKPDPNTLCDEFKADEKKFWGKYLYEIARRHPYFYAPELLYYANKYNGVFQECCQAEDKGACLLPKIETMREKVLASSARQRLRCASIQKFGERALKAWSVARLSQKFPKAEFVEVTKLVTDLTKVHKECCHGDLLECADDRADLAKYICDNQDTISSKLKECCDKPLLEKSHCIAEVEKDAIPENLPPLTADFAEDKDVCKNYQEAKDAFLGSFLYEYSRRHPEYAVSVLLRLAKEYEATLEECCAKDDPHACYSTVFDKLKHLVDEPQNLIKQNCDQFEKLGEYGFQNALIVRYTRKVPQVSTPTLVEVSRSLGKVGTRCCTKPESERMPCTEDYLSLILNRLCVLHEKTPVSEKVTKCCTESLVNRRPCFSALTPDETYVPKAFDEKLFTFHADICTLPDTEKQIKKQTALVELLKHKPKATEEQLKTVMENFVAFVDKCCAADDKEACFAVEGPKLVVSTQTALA
Procedure: The following method was used to evaluate the ability of the compounds of the present invention to inhibit the cross-linking of glycated bovine serum albumin (AGE-BSA) to the rat tail tendon collagen-coated 96-well plate.
The blocking solution was removed from the wells by, washing the plate twice with PBS-'Tween 20 solution (0.05% Tween 20) using a NUNq-multiprobe or Dynatech ELISA-plate washer. Cross-linking of AGE-BSA (1 to 10 mg per well depending on the batch of AGE-BSA) to rat tail tendon collagen coated plate was performed with and without the testing ‘compound dissolved in PBS buffer at pH 7.4 at the desired concentrations by the, addition of 50 μl each of the AGE-BSA diluted in PBS or in the solution of test compound at 37° C. for 4 hours.
Unbrowned BSA in PBS buffer with or without testing compound were added to the separate wells as the blanks. The un-cross-linked AGE-BSA was then removed by washing the wells three times with PBS-Tween buffer. The amount of AGE-BSA cross-linked to the tail tendon collagen-coated plate was then quantitated using a polyclonal antibody raised against AGE-RNase. After a one-hour incubation period, AGE antibody was removed by washing 4 times with PBS-Tween.
The bound AGE antibody was then detected with the addition of horseradish peroxidase-conjugated secondary antibody—goat anti-rabbit immunoglobulin and incubation for 30 minutes. […] The reaction was allowed for an additional 15 minutes and the absorbance was read at 410 nm in a Dynatech plate reader.

T1 sequence (P02769 25-607): as above
T1 sequence (P02454 152-1207 partner limits assumed): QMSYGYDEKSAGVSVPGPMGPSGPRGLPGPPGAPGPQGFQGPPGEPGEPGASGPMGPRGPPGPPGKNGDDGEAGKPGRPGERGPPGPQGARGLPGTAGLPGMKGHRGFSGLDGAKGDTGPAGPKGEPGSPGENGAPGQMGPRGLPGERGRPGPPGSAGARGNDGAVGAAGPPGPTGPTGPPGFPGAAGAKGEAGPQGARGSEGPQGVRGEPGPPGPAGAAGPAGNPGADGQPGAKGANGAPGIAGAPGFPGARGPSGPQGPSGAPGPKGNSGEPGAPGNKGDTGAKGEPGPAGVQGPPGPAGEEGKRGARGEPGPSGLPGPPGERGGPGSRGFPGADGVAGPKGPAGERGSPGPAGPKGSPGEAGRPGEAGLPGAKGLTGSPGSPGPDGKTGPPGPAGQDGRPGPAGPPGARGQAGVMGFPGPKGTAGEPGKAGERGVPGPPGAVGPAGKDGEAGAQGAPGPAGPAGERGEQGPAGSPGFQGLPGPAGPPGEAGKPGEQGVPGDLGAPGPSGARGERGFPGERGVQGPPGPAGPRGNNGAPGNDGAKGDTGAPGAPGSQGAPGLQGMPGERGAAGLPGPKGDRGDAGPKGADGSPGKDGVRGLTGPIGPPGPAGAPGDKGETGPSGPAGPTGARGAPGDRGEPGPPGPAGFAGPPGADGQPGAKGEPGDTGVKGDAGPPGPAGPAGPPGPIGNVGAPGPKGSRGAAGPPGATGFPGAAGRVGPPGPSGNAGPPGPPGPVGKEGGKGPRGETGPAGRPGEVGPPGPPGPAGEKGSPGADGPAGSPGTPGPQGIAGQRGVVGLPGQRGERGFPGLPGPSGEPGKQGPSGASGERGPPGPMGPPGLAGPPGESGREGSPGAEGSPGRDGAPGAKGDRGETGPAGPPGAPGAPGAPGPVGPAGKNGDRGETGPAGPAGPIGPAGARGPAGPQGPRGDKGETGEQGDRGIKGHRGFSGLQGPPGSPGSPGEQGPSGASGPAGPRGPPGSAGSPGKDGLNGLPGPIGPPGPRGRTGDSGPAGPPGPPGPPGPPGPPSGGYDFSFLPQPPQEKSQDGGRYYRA
T1 sequence (P02466 86-1125 partner limits assumed): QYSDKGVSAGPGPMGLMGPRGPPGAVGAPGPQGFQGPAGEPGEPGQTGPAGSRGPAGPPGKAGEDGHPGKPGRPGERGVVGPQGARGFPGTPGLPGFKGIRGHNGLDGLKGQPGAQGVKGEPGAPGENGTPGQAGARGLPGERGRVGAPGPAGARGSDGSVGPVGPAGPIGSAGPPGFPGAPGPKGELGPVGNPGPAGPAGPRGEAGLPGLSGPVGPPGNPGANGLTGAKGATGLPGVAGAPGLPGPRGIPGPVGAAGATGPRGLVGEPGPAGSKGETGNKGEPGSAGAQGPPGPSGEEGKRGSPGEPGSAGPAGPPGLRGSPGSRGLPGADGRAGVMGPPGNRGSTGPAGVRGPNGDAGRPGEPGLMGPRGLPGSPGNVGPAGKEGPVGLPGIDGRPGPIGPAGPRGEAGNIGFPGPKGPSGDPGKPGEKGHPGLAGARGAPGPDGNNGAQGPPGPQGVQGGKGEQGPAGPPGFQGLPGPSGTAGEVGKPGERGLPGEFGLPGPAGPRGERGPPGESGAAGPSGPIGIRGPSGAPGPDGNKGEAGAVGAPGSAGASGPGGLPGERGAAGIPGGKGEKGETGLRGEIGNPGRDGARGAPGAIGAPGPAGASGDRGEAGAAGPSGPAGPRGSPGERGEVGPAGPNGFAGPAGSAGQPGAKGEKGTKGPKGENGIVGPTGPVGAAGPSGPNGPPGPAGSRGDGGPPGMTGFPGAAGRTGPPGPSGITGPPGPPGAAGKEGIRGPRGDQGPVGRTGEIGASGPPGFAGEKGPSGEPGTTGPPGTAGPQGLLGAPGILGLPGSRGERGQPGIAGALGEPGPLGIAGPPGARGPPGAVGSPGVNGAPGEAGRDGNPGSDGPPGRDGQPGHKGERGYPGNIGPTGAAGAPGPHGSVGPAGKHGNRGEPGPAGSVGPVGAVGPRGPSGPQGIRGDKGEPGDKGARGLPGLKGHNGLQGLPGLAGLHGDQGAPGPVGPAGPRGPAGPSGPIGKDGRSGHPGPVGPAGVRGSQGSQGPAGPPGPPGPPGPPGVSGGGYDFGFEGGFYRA

| pIC50 [2] | Molecule | Breaking Anti-AGE ([1]; at 10 mM) | Breaking Anti-BSA ([1]; at 10 mM) | other results |
| --- | --- | --- | --- | --- |
|  | 3-(2-(3′-methoxyphenyl]-2-oxoethyl)-thiazolium bromide | 22% | 44% |  |
| 2.35 | C[n+]1ccn(CC(=O)c2cc(C(C)(C)C)c(O)c(C(C)(C)C)c2)c1 [1-methyl-3-(2-(3′,5′-di-tert-butyl-4′-hydroxyphenyl)-2-oxoethyl]-imidazolium bromide] | 56% | 38% |  |
|  | Cc1cc(C)c(S(=O)(=O)[O-])c(C)c1.Nc1sc(-c2ccc3c(c2)OCCCO3)c[n+]1N [2,3-Diamino-5-(3′,4′-trimethylenedioxyphenyl)thiazolium mesitylene sulfonate] |  |  | Breaking Anti-AGE ([1]; at 1 mM): 13%; Breaking Anti-BSA ([1]; at 1 mM): 42% |
|  | Nc1sc2ccccc2[n+]1N [2,3-diaminio-benzothiazolium mesitylenesulfonate] |  |  | Breaking Anti-AGE ([1]; at 30 mM): 87%; Breaking Anti-BSA ([1]; at 30 mM): 54% |
|  | Nc1ccc2c(c1)sc(N)[n+]2CC(=O)c1ccc(Br)cc1.[Br-] [2,6-diamino-3 (2-(4′-bromophenyl)-2-oxoethyl]benzothiazolium bromide] | 27% | 44% |  |
|  | Nc1ccc2c(c1)sc(N)[n+]2CC(=O)c1ccc(F)cc1.[Br-] [2,6-diamino-3 (2-(4′-fluorophenyl-2-oxoethyl]benzothiazolium bromide] | 24% | 40% |  |
|  | COc1ccc(C(=O)C[n+]2c(N)sc3cc(N)ccc32)cc1.[Br-] [2,6-diamino-3 (2-(4′-methoxyphenyl)-2-oxoethyl]benzothiazolium bromide] | 29% | 35% |  |
|  | Cc1c(CCO)sc[n+]1CC(=O)c1ccc2c(c1)OCCO2.[Br-] [3 (2-(1′,4′-benzodioxan-6-yl)-2-oxoethyl]-4-methyl-5-(2′-hydroxyethyl)-thiazolium bromide] |  |  | Breaking Anti-AGE ([1]; at 3 mM): 11%; Breaking Anti-BSA ([1]; at 3 mM): 21%; Relative Cross-link Inhibition (at 10 mM) [2]: 13% |
|  | CCOC(=O)c1ccc(NC(=O)C[n+]2csc(CCO)c2C)cc1.[Br-] [3-(2-4′-carbethoxyanilino)-2-oxoethyl]-4-methyl-5-(2′-hydroxyethyl)-thiazolium bromide] | 48% | 57% | Relative Cross-link Inhibition ([2]; 1 mM): 8.8% (1 mm) |
|  | Cc1c(CCO)sc[n+]1CC(=O)Nc1c(C(C)C)cccc1C(C)C.[Br-] [3-(2-(2′,6′-Diisopropylanilino)-2-oxoethyl]-4-methyl-5-(2′-hydroxyethyl)-thiazolium bromide] | 31% | 48% | Relative Cross-link Inhibition (at 10 mM) [2]: 19% |
|  | O=C(C[n+]1ccsc1)c1ccc2c(c1)OCCCO2.[Br-] [3-(2-(3′,4′-trimethylenedioxyphenyl)-2-oxoethyl]-thiazolium bromide] | 17% | 18% |  |
| 3.80 | Cc1sc[n+](CC(=O)c2cc(C(C)(C)C)c(O)c(C(C)(C)C)c2)c1C [3-(2-(3′,5′-di-tert-butyl-4′-hydroxypheny].)-2-oxoethyl]-4,5-dimethyl-thiazolium bromide] |  |  |  |
|  | C=Cc1sc[n+](CC(=O)c2cc(C(C)(C)C)c(O)c(C(C)(C)C)c2)c1C [3-(2-(3′,5′-tert-butyl-4′-hydroxyphenyl)-2-oxoethyl)-4-methyl-5-vinyl-thiazolium bromide] |  |  | Breaking Anti-AGE ([1]; at 0.3 mM): 32%; Breaking Anti-BSA ([1]; at 0.3 mM): 50%; IC50 (mM) Anti-BSA ([1]; detection with anti-BSA antibody): ND/0/60% |
|  | O=C(C[n+]1ccsc1)c1ccc(Br)cc1.[Br-] [3-(2-(4^1-bromophenyl]-2-oxoethyl)-thiazolium bromide] |  |  | Breaking Anti-AGE ([1]; at 30 mM): 76%; Breaking Anti-BSA ([1]; at 30 mM): 25% |
| 2.75 | COC(=O)c1ccc(NC(=O)C[n+]2csc(CCO)c2C)cc1O [3-(2-(4′-carbmethoxy-3′-hydroxyanilino)-2-oxoethyl]-4-methyl-5-(2′-hydroxyethyl)-thiazolium bromide] | 24% | 18% |  |
|  | CCCCCc1ccc(C(=O)C[n+]2csc(CCO)c2C)cc1.[Br-] [3-(2-(4′-n-pentylphenyl)-2-oxoethyl]-4-methyl-5-(2′-hydroxyethyl)-thiazolinium] |  |  | Relative Cross-link Inhibition ([2]; 3 mM): 52% @ 3 mM |
| 2.53 | Cc1c(CCO)sc[n+]1CC(=O)c1ccc(Br)cc1 [3-(2-(41-bromophenyl]-2-oxoethyl)-4-methyl-5-(2-hydroxyethyl)thiazolium bromide] |  |  |  |
|  | CCCCN(CCCC)C(=O)C[n+]1csc(CCO)c1C.[Br-] [3-(2-Dibutylamino-2-oxoethyl]-4-methyl-5-(2′-hydroxyethyl)-thiazolium bromide] | 25% | 38% | inhibition at 10000 µM [2]: 0.8% |
| 3.28 | NC(=O)C[n+]1ccsc1 [3-(2-amino-2-oxoethyl)-thiazolium bromide] |  |  |  |
|  | COC(=O)C[n+]1csc(CCO)c1C [3-(2-methoxy-2-oxoethyl)-4-methyl-5-(2-hydroxyethyl)-thiazolium bromide] |  |  | inhibition at 10000 µM [2]: 38% |
|  | CC(=O)C[n+]1ccsc1.[Cl-] [3-(2-methyl-2-oxoethyl)thiazolium chloride] |  |  | IC50 ([1]; IC50 (mM) Anti-AGE, detection with anti-AGE antibody): 0.83 mM; IC50 ([1]; IC50 (mM) Anti-BSA, detection with anti-BSA antibody): 0.75 mM; Breaking Anti-AGE ([1]; concentration not given): 56%; Breaking Anti-BSA ([1]; concentration not given): 93% |
| 1.90 | Cc1c[n+](CC(=O)c2ccccc2)cs1 [3-(2-phenyl-2-oxoethyl)-5-methyl-thiazolium bromide] |  |  |  |
|  | CC(C)(C)C(=O)C[n+]1ccsc1.[Br-] [3-(2-tert-butyl-2-oxoethyl)-thiazolium bromide] | 28% | 37% |  |
|  | Cc1c(CCO)sc[n+]1Cc1c(Cl)cccc1Cl.[Cl-] [3-(2′,6′-dichlorobenzyl)-4-methyl-5-(2′-15 hydroxyethyl)-thiazolium chloride] | 6% | 27% |  |
|  | Cc1c(CCO)sc[n+]1Cc1ccccc1[N+](=O)[O-].[Br-] [3-(2′-nitrobenzyl)-4-methyl-5-(2′-hydroxyethyl)-thiazolium bromide] | 11% | 13% |  |
|  | COc1cccc(C[n+]2csc(CCO)c2C)c1.[Cl-] [3-(3′-methoxybenzyl)-4-methyl-5-(2′-hydroxyethyl)-thiazolium chloride] | 4% and 14% | 19% and 25% |  |
|  | Cc1c(CCO)sc[n+]1Cc1ccccc1.[Cl-] [3-benzyl-5-(2-hydroxyethyl)-4-methyl thiazolium chloride] |  |  | Breaking Anti-AGE ([1]; at 30 mM): 65%; Breaking Anti-BSA ([1]; at 30 mM): 61% |

| Molecule | pIC50 [2] | Breaking Anti-AGE ([1]; at 10 mM) | Breaking Anti-BSA ([1]; at 10 mM) | other results |
| --- | --- | --- | --- | --- |
| COC(=O)C[n+]1ccsc1.[Br-] [3-(2-Methoxy-2-Oxoethyl)-Thiazolium Bromide] | 3.60 |  |  | Breaking Anti-AGE ([1]; at 30 mM): 38%; Breaking Anti-BSA ([1]; at 30 mM): 41% |
| Cc1sc[n+](CC(N)=O)c1C.[Br-] [3-(2-amino-2-oxoethyl)-4,5-dimethyl-thiazolium bromide] | 2.00 |  |  | Breaking Anti-AGE ([1]; at 30 mM): 61%; Breaking Anti-BSA ([1]; at 30 mM): 16% |
| Cc1c(CCO)sc[n+]1CC(N)=O.[Br-] [3-(2-amino-2-oxoethyl)-4-methyl-5-(2-hydroxyethyl)thiazolium bromide] | 2.85 |  |  | Breaking Anti-AGE ([1]; concentration not given): 65%; Breaking Anti-BSA ([1]; concentration not given): 57% |
